# Results: ChEMBL document CHEMBL1909294, “Translating clinical findings into knowledge in drug safety evaluation--drug induced liver injury prediction system (DILIps)” (PLoS Comput Biol, 2011)
# What was measured:
# Hepatotoxicity [1] = tested on: Hepatotoxicity;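 for HepSE Combined Scores: combined hepatic side effect score as listed in the training data of the Drug Induced Liver Injury Prediction System (DILIps)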;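 for HepSE cholecystitis: Cholecystitis-related hepatic side effect score drawn from the DILIps (drug-induced liver injury prediction) training data set; call rule not given here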;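 for HepSE cirrhosis: cirrhosis hepatic side effect score taken from the DILIps (drug-induced liver injury prediction) training set; call rule not given here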;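 for HepSE elevated liver function tests: hepatic side effect score for raised liver function tests, as recorded in the DILIps training set used for predicting drug-induced liver injury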;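 for HepSE hepatitis: Hepatitis-related hepatic side effect score taken from the training data of DILIps, a prediction system for drug-induced liver injury; call rule not given here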;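 for HepSE liver function tests abnormal: hepatic side effect score taken from the DILIps (drug-induced liver injury prediction system) training data, here covering abnormal liver function test findings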
# Hepatotoxicity [2] = tested on: Hepatotoxicity; remark: listed apart in the source;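 for HepSE Combined Scores: combined hepatic side effect score as listed in the training data of the Drug Induced Liver Injury Prediction System (DILIps)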;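 for HepSE cholecystitis: Cholecystitis-related hepatic side effect score drawn from the DILIps (drug-induced liver injury prediction) training data set; call rule not given here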;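 for HepSE cirrhosis: cirrhosis hepatic side effect score taken from the DILIps (drug-induced liver injury prediction) training set; call rule not given here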;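 for HepSE elevated liver function tests: hepatic side effect score for raised liver function tests, as recorded in the DILIps training set used for predicting drug-induced liver injury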;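 for HepSE hepatitis: Hepatitis-related hepatic side effect score taken from the training data of DILIps, a prediction system for drug-induced liver injury; call rule not given here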;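 for HepSE liver function tests abnormal: hepatic side effect score taken from the DILIps (drug-induced liver injury prediction system) training data, here covering abnormal liver function test findings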
# Hepatotoxicity [3] = tested on: Hepatotoxicity; remark: listed apart in the source;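 for HepSE Combined Scores: combined hepatic side effect score as listed in the training data of the Drug Induced Liver Injury Prediction System (DILIps)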;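 for HepSE cholecystitis: Cholecystitis-related hepatic side effect score drawn from the DILIps (drug-induced liver injury prediction) training data set; call rule not given here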;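 for HepSE cirrhosis: cirrhosis hepatic side effect score taken from the DILIps (drug-induced liver injury prediction) training set; call rule not given here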;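 for HepSE elevated liver function tests: hepatic side effect score for raised liver function tests, as recorded in the DILIps training set used for predicting drug-induced liver injury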;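 for HepSE hepatitis: Hepatitis-related hepatic side effect score taken from the training data of DILIps, a prediction system for drug-induced liver injury; call rule not given here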;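 for HepSE liver function tests abnormal: hepatic side effect score taken from the DILIps (drug-induced liver injury prediction system) training data, here covering abnormal liver function test findings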
# Hepatotoxicity [4] = tested on: Hepatotoxicity; remark: listed apart in the source;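 for HepSE Combined Scores: combined hepatic side effect score as listed in the training data of the Drug Induced Liver Injury Prediction System (DILIps)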;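 for HepSE cholecystitis: Cholecystitis-related hepatic side effect score drawn from the DILIps (drug-induced liver injury prediction) training data set; call rule not given here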;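 for HepSE elevated liver function tests: hepatic side effect score for raised liver function tests, as recorded in the DILIps training set used for predicting drug-induced liver injury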;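 for HepSE hepatitis: Hepatitis-related hepatic side effect score taken from the training data of DILIps, a prediction system for drug-induced liver injury; call rule not given here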;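 for HepSE liver function tests abnormal: hepatic side effect score taken from the DILIps (drug-induced liver injury prediction system) training data, here covering abnormal liver function test findings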
# Hepatotoxicity [5] = tested on: Hepatotoxicity; remark: listed apart in the source
# Hepatotoxicity [6] = tested on: Hepatotoxicity; remark: listed apart in the source
# Hepatotoxicity [7] = tested on: Hepatotoxicity; remark: listed apart in the source
# Hepatotoxicity [8] = tested on: Hepatotoxicity; remark: listed apart in the source
# Hepatotoxicity [9] = tested on: Hepatotoxicity; remark: listed apart in the source
# Hepatotoxicity [10] = tested on: Hepatotoxicity; remark: listed apart in the source
# Hepatotoxicity [11] = tested on: Hepatotoxicity; remark: listed apart in the source
# Hepatotoxicity [12] = tested on: Hepatotoxicity; remark: listed apart in the source
# Hepatotoxicity [13] = tested on: Hepatotoxicity; remark: listed apart in the source
# Hepatotoxicity [14] = tested on: Hepatotoxicity; remark: listed apart in the source
Compound,HepSE_Combined Scores (Hepatotoxicity [1]),HepSE_hepatitis (Hepatotoxicity [2]),HepSE_elevated liver function tests (Hepatotoxicity [3]),HepSE_liver function tests abnormal (Hepatotoxicity [4]),HepSE_cholecystitis (Hepatotoxicity [5]),HepSE_hepatic necrosis (Hepatotoxicity [6]),HepSE_cirrhosis (Hepatotoxicity [7]),HepSE_bilirubinemia (Hepatotoxicity [8]),HepSE_liver fatty (Hepatotoxicity [9]),HepSE_liver disease (Hepatotoxicity [10]),HepSE_hepatomegaly (Hepatotoxicity [11]),HepSE_jaundice (Hepatotoxicity [12]),HepSE_cholelithiasis (Hepatotoxicity [13]),HepSE_hepatic failure (Hepatotoxicity [14]),HepSE_elevated liver function tests (Hepatotoxicity [3]; Liver),HepSE_liver function tests abnormal (Hepatotoxicity [4]; Liver)
CN(C)CCOC(c1ccc(Cl)cc1)c1ccccn1 (configuration not stated) [CARBINOXAMINE],0,0,0,0,0,0,0,0,0,0,0,0,0,0,–,–
CN1CCC[C@@H]1CCO[C@](C)(c1ccccc1)c1ccc(Cl)cc1 [CLEMASTINE],0,0,–,–,0,0,0,0,0,0,0,0,0,0,0,0
C[C@H](O)[C@H](O)[C@H]1CNc2nc(N)[nH]c(=O)c2N1 [SAPROPTERIN],0,0,0,0,0,0,0,0,0,0,0,0,0,0,–,–
O=C(O)CCc1nc(-c2ccccc2)c(-c2ccccc2)o1 [OXAPROZIN],3,1,0,0,0,0,0,0,0,0,0,1,0,1,–,–
Clc1ccc(CCC(Cn2ccnc2)Sc2c(Cl)cccc2Cl)cc1 (configuration not stated) [BUTOCONAZOLE],0,0,0,0,0,0,0,0,0,0,0,0,0,0,–,–
O=C1Nc2ccc(Cl)cc2C(c2ccccc2Cl)=NC1O (configuration not stated) [LORAZEPAM],2,0,0,1,0,0,0,0,0,0,0,1,0,0,–,–
Clc1ccc(COC(Cn2ccnc2)c2ccc(Cl)cc2Cl)c(Cl)c1 (configuration not stated) [MICONAZOLE],0,0,0,0,0,0,0,0,0,0,0,0,0,0,–,–
O=C(N[C@H](CO)[C@H](O)c1ccc([N+](=O)[O-])cc1)C(Cl)Cl [CHLORAMPHENICOL],0,0,0,0,0,0,0,0,0,0,0,0,0,0,–,–
CCCc1nn(C)c2c(=O)[nH]c(-c3cc(S(=O)(=O)N4CCN(C)CC4)ccc3OCC)nc12,1,0,0,1,0,0,0,0,0,0,0,0,0,0,–,–
CC(C)=CCN1CC[C@]2(C)c3cc(O)ccc3C[C@H]1[C@H]2C [(+)-PENTAZOCINE],0,0,0,0,0,0,0,0,0,0,0,0,0,0,–,–
CCN(CC)C(=O)/C(C#N)=C/c1cc(O)c(O)c([N+](=O)[O-])c1 [ENTACAPONE],5,1,0,0,1,0,0,1,0,0,0,0,1,1,–,–
C[C@H]1C[C@H]2[C@@H]3CCC4=CC(=O)C=C[C@]4(C)[C@@]3(F)[C@@H](O)C[C@]2(C)[C@@]1(O)C(=O)CCl [CLOBETASOL],0,0,0,0,0,0,0,0,0,0,0,0,0,0,–,–
NS(=O)(=O)c1cc2c(cc1Cl)N=CNS2(=O)=O [CHLOROTHIAZIDE],1,0,0,0,0,0,0,0,0,0,0,1,0,0,–,–
CCOC(=O)[C@H](CCc1ccccc1)N[C@@H](C)C(=O)N1[C@H](C(=O)O)C[C@H]2CCCC[C@@H]21 [TRANDOLAPRIL],2,1,0,1,0,0,0,0,0,0,0,0,0,0,–,–
Nc1nc2ccc(OC(F)(F)F)cc2s1 [RILUZOLE],3,1,0,0,1,0,0,0,0,0,0,1,0,0,–,–
Cc1ccc(S(=O)(=O)NC(=O)NN2CC3CCCC3C2)cc1 (configuration not stated) [GLICLAZIDE],4,1,0,0,0,0,0,0,0,0,1,1,0,1,–,–
CCCCCCC(C)(C)c1cc(O)c2c(c1)OC(C)(C)C1CCC(=O)CC21 (configuration not stated) [NABILONE],0,0,0,0,0,0,0,0,0,0,0,0,0,0,–,–
GLATIRAMER ACETATE,5,1,0,0,1,0,1,0,0,0,1,0,1,0,–,–
